From ChEMBL document CHEMBL1143799, “Synthesis and primary cytotoxicity evaluation of new imidazo[2,1-b]thiazole derivatives” (2007)

Tests used:
Assay type in all cases: functional
MCF7 = assay: Cytotoxicity against human MCF7 cells assessed as growth at 100 uM after 48 hrs by SRB protein assay relative to control; settings: MCF7, 48 h, read-out: Activity
NCI-H460 = assay: Cytotoxicity against human […] cells assessed as growth at 100 uM after 48 hrs by SRB protein assay relative to control; settings: NCI-H460, 48 h, read-out: Activity
SF-268 = assay: Cytotoxicity against human SF268 cells assessed as growth at 100 uM after 48 hrs by SRB protein assay relative to control; settings: SF-268, 48 h, read-out: Activity
K562 = assay: Growth inhibition of human K562 cells after 48 hrs by SRB protein assay; settings: K562, 48 h; for TGI: read-out: Log TGI (converted)
HCC 2998 = assay: Growth inhibition of human HCC2998 cells after 48 hrs by SRB protein assay; settings: HCC 2998, 48 h; for TGI: read-out: Log TGI (converted)
SNB-19 = assay: Growth inhibition of human SNB19 cells after 48 hrs by SRB protein assay; settings: SNB-19, 48 h; for TGI: read-out: Log TGI (converted)
SNB-75 = assay: Growth inhibition of human SNB75 cells after 48 hrs by SRB protein assay; settings: SNB-75, 48 h; for TGI: read-out: Log TGI (converted)
LOX IMVI = assay: Growth inhibition of human LOX IMVI cells after 48 hrs by SRB protein assay; settings: for TGI: read-out: Log TGI (converted)
SK-MEL-28 = assay: Growth inhibition of human SK-MEL-28 cells after 48 hrs by SRB protein assay; settings: SK-MEL-28, 48 h; for TGI: read-out: Log TGI (converted)
UACC-257 = assay: Growth inhibition of human UACC257 cells after 48 hrs by SRB protein assay; settings: UACC-257, 48 h; for TGI: read-out: Log TGI (converted)
IGROV-1 = assay: Growth inhibition of human IGROV1 cells after 48 hrs by SRB protein assay; settings: IGROV-1, 48 h; for TGI: read-out: Log TGI (converted)
OVCAR-3 = assay: Growth inhibition of human OVCAR-3 cells after 48 hrs by SRB protein assay; settings: OVCAR-3, 48 h; for TGI: read-out: Log TGI (converted)
OVCAR-4 = assay: Growth inhibition of human OVCAR4 cells after 48 hrs by SRB protein assay; settings: OVCAR-4, 48 h; for TGI: read-out: Log TGI (converted)
[1] = Growth inhibition of human 786O cells after 48 hrs by SRB protein assay; settings: 786-0, 48 h; for TGI: read-out: Log TGI (converted)
SN12C = assay: Growth inhibition of human SN12C cells after 48 hrs by SRB protein assay; settings: for TGI: read-out: Log TGI (converted)
TK-10 = assay: Growth inhibition of human TK10 cells after 48 hrs by SRB protein assay; settings: TK-10, 48 h; for TGI: read-out: Log TGI (converted)
NCI/ADR-RES = assay: Growth inhibition of human NCI/ADR-RES cells after 48 hrs by SRB protein assay; settings: for TGI: read-out: Log TGI (converted)
MDA-MB-435 = assay: Growth inhibition of human MDA-MB-435 cells after 48 hrs by SRB protein assay; settings: MDA-MB-435, 48 h; for TGI: read-out: Log TGI (converted)
NCI-H226 = assay: Growth inhibition of human NCI-H226 cells after 48 hrs by SRB protein assay; settings: NCI-H226, 48 h; for TGI: read-out: Log TGI (converted)
A498 = assay: Growth inhibition of human A498 cells after 48 hrs by SRB protein assay; settings: A498, 48 h; for TGI: read-out: Log TGI (converted)

GI50 (HCC 2998) | GI50 (SK-MEL-28) | GI50 (OVCAR-3) | SMILES | TGI (HCC 2998) | GI50 (SNB-19) | TGI (SNB-19) | GI50 (SNB-75) | TGI (SNB-75) | GI50 (LOX IMVI) | TGI (LOX IMVI) | TGI (SK-MEL-28) | GI50 (UACC-257) | TGI (UACC-257) | GI50 (IGROV-1) | TGI (IGROV-1) | TGI (OVCAR-3) | GI50 [1] | TGI [1] | GI50 (SN12C) | TGI (SN12C) | also measured
13.2 µM | > 100 µM | 24 µM | O=C(Cc1csc2nc(-c3ccc(Br)cc3)cn12)N/N=C/c1ccccc1 | 49 µM | 43.7 µM | > 100 µM | 31.6 µM | 89.1 µM | 12.3 µM | 91.2 µM | > 100 µM | 6.17 µM | 31.6 µM | 11.2 µM | 32.4 µM | 46.8 µM | 27.5 µM | > 100 µM | 13.2 µM | 39.8 µM | growth at 100 µM (MCF7): 57%; growth at 100 µM (NCI-H460): 12%; growth at 100 µM (SF-268): 65%; TGI (K562): 7.94 µM; GI50 (OVCAR-4): 46.8 µM; TGI (OVCAR-4): > 100 µM; GI50 (TK-10): 14.1 µM; TGI (TK-10): 41.7 µM; GI50 (NCI/ADR-RES): 13.5 µM; TGI (NCI/ADR-RES): 67.6 µM; GI50 (MDA-MB-435): 12 µM; TGI (MDA-MB-435): 51.3 µM
14.5 µM | 60.3 µM | 24 µM | O=C(Cc1csc2nc(-c3ccc(Br)cc3)cn12)N/N=C/c1ccc(O)cc1 | 29.5 µM | 57.5 µM | > 100 µM | > 100 µM | > 100 µM | 11.2 µM | 26.3 µM | 100 µM | 1.51 µM | 7.76 µM | 10.7 µM | 39.8 µM | 49 µM | 26.3 µM | 89.1 µM | 15.5 µM | 43.7 µM | growth at 100 µM (MCF7): 22%; growth at 100 µM (NCI-H460): 11%; growth at 100 µM (SF-268): 42%; GI50 (K562): 1.82 µM; TGI (K562): 7.08 µM; GI50 (OVCAR-4): > 100 µM; TGI (OVCAR-4): > 100 µM; GI50 (TK-10): 9.77 µM; TGI (TK-10): 33.1 µM; GI50 (NCI/ADR-RES): 21.4 µM; TGI (NCI/ADR-RES): 61.7 µM; GI50 (MDA-MB-435): 6.31 µM; TGI (MDA-MB-435): 24.5 µM
20 µM | > 100 µM | 34.7 µM | O=C(Cc1csc2nc(-c3ccc(Br)cc3)cn12)N/N=C/c1ccc(Cl)cc1Cl | 44.7 µM | 95.5 µM | > 100 µM | 37.2 µM | > 100 µM | 21.4 µM | 49 µM | > 100 µM | 69.2 µM | > 100 µM | 15.8 µM | 45.7 µM | > 100 µM | 25.7 µM | 74.1 µM | 85.1 µM | > 100 µM | growth at 100 µM (MCF7): 46%; growth at 100 µM (NCI-H460): 24%; growth at 100 µM (SF-268): 94%; GI50 (NCI-H226): 31.6 µM; TGI (NCI-H226): 91.2 µM; GI50 (OVCAR-4): 37.2 µM; TGI (OVCAR-4): > 100 µM; GI50 (A498): 29.5 µM; TGI (A498): 63.1 µM; GI50 (NCI/ADR-RES): 17.4 µM; TGI (NCI/ADR-RES): 52.5 µM; GI50 (MDA-MB-435): 31.6 µM; TGI (MDA-MB-435): > 100 µM
3.47 µM | 12 µM | 3.24 µM | O=C(Cc1csc2nc(-c3ccc(Br)cc3)cn12)N/N=C/c1ccccc1O | 12.6 µM | 6.76 µM | 25.1 µM | 12.9 µM | 32.4 µM | 3.47 µM | 12.9 µM | 24 µM | 3.72 µM | 11.5 µM | 1.05 µM | 11.5 µM | 15.1 µM | 4.68 µM | 17.8 µM | 3.31 µM | 15.8 µM | growth at 100 µM (MCF7): 7%; growth at 100 µM (NCI-H460): 0%; growth at 100 µM (SF-268): 50%; GI50 (K562): 0.0372 µM; TGI (K562): 2.95 µM; GI50 (NCI-H226): 1.95 µM; TGI (NCI-H226): 7.76 µM; GI50 (TK-10): 2.04 µM; TGI (TK-10): 8.71 µM; GI50 (NCI/ADR-RES): 2.51 µM; TGI (NCI/ADR-RES): 6.76 µM; GI50 (MDA-MB-435): 3.31 µM; TGI (MDA-MB-435): 13.5 µM
10 µM | 41.7 µM | 15.8 µM | COc1cccc(OC)c1/C=N/NC(=O)Cc1csc2nc(-c3ccc(Br)cc3)cn12 | 34.7 µM | 31.6 µM | > 100 µM | 24 µM | 66.1 µM | 12.6 µM | 47.9 µM | > 100 µM | 24 µM | 97.7 µM | 3.98 µM | 26.9 µM | 58.9 µM | 26.3 µM | > 100 µM | 20.9 µM | 49 µM | growth at 100 µM (MCF7): 27%; growth at 100 µM (NCI-H460): 15%; growth at 100 µM (SF-268): 82%; GI50 (K562): 2.95 µM; TGI (K562): 6.92 µM; GI50 (OVCAR-4): 28.2 µM; TGI (OVCAR-4): > 100 µM; GI50 (TK-10): 16.2 µM; TGI (TK-10): 51.3 µM; GI50 (NCI/ADR-RES): 12.9 µM; TGI (NCI/ADR-RES): 35.5 µM; GI50 (MDA-MB-435): 3.98 µM; TGI (MDA-MB-435): 16.2 µM

SMILES | GI50 (HCC 2998) | GI50 (SK-MEL-28) | GI50 (OVCAR-3) | TGI (HCC 2998) | GI50 (SNB-19) | TGI (SNB-19) | GI50 (SNB-75) | TGI (SNB-75) | GI50 (LOX IMVI) | TGI (LOX IMVI) | TGI (SK-MEL-28) | GI50 (UACC-257) | TGI (UACC-257) | GI50 (IGROV-1) | TGI (IGROV-1) | TGI (OVCAR-3) | GI50 [1] | TGI [1] | GI50 (SN12C) | TGI (SN12C) | also measured
Nc1nc2[nH]cnc2c(=S)[nH]1 [THIOGUANINE] | 1 µM | 8.91 µM | 0.708 µM | 18.2 µM | 79.4 µM | 245 µM | 1.45 µM | 41.7 µM | 0.209 µM | 9.12 µM | 155 µM | 2 µM | 97.7 µM | 4.79 µM | 145 µM | 6.76 µM | 0.832 µM | 107 µM | 1.26 µM | 174 µM | GI50 (K562): 0.407 µM; TGI (K562): 70.8 µM; GI50 (NCI-H226): 4.07 µM; TGI (NCI-H226): 97.7 µM; GI50 (OVCAR-4): 1.51 µM; TGI (OVCAR-4): 100 µM; GI50 (A498): 6.76 µM; TGI (A498): 95.5 µM; GI50 (TK-10): 1.05 µM; TGI (TK-10): 79.4 µM; GI50 (MDA-MB-435): 0.851 µM; TGI (MDA-MB-435): 32.4 µM
